Test results published in patent US9636324B2, “Use of 15-benzylidence-14-deoxy-11, 12 -dehyroandrographolide derivative in manufacture of medicaments for protecting liver and anti-hepatitis C virus” (Zhengzhou University, priority 2012, dated 2017).

Legend:
[1] = system: mice with ConA induced liver damage; test: ConA induced immunological liver damage model in mice; type: in vivo, Kunming mice; conditions: for protective effect against liver damage induced by ConA (summary): mice, intragastric, 3 days
Method: Kunming mice of clean grade (male, weight 20±2 g, supplied by the Laboratory Animal Center, Henan Province) are randomly divided into groups with 6 mice in each group. Bifendate (Xinchang Pharmaceutical Factory of Zhejiang Pharmaceutical Co., Ltd, 200 mg/kg) is used as positive control, andrographolide (AD) is provided by Furen Pharmaceutical Group Co., Ltd, and the test compounds are synthesized by the inventors with purities higher than 99.0%. Normal control group and model group are intragastrically given 0.5% sodium carboxymethylcellulose (CMC-Na), and test groups are given 0.5% CMC-Na suspensions with AD (0.88 mmol/kg), and low dosage (0.66 mmol/kg) and high dosage (0.88 mmol/kg) of compound A, B and C, respectively. The drugs are given for 3 days. One hour after the last administration, all mice except those in the normal control group are injected with a single dose of ConA (20 mg/kg) through the caudal vein. After 8 h, the eyeball is enucleated to collect blood, which is centrifuged at 3000 rpm for 15 min to separate serum. ALT and AST are tested according to the kit specification, respectively (Nanjing Jiancheng Bioengineering Institute). The left lobe of liver is taken to prepare 10% homogenate using physiological saline, MDA is determined according to the kit specification (Nanjing Jiancheng Bioengineering Institute). To 50 μL liver homogenate is added 2 mL of 0.5 mol/L KOH-methanol solution and kept at 50° C. water bath to isomerize for 20 minutes, then absorbance (A value) is measured at 278 nm, using the A value per mL of homogenate to represent the PGE2 content. Experimental data are expressed as average±standard deviation (X±s), analyzed with SPSS 11.5 statistic software, with P<0.05 meaning significant difference.
Kunming mice of clean grade (male, weight 20±2 g) are randomly divided into normal group, model group, bifendate (Zhejiang Wanbang Pharmaceutical Co., Ltd) positive control group (200 mg/kg), AD group (0.88 mmol/kg), low dosage group (0.66 mmol/kg) and high dosage (0.88 mmol/kg) group of compound D. ALT, AST, and MDA assay kits are purchased from Nanjing Jiancheng Bioengineering Institute. Other agents, drugs and experimental methods are the same as in EXAMPLE 1.
In experimental investigation of both models, the following grouping method is used: Kunming mice of clean grade (male, weight 20±2 g) are randomly divided into normal group, model group, bifendate group (200 mg/kg), AD group (0.88 mmol/kg), low dosage group (0.66 mmol/kg) and high dosage group (0.88 mmol/kg) of compound E, with 8 mice in each group. Other agents, drugs and experimental methods are the same as in EXAMPLE 1 and in EXAMPLE 4, respectively.

[2] = system: bovine viral diarrhea virus (BVDV-AV69); test: CPE observation of effects on cytopathy caused by BVDV in MDBK cells; conditions: for antiviral effect compared with AD / pharmaceutical effect against cytopathy caused by virus compared with ribavirin: BVDV in MDBK cells; for TI value (therapy index, TC50/IC50): MDBK cells, BVDV-AV69, TC50 from MTT, IC50 from CPE
Method: Pharmaceutical effects of drugs of the invention against cytopathy caused by inoculation of BVDV virus are investigated using MDBK (NBL-1) cells (purchased from Chinese Academy of Science's Shanghai Center for Type Culture Collection) and bovine viral diarrhea virus (BVDV-AV69) (purchased from China Institute of Veterinary Drugs Control). Ribavirin (R; Henan RunHong Pharmaceutical Co., Ltd; batch number: E0909604) is used as positive drug control. MDBK cells are prepared as a suspension (1×10^5/mL) in RPMI1640 culture medium which contains 10% in volume fetal bovine serum (Zhejiang Tianhang Biotechnology Co., Ltd; batch number: 100524), 100 μg/mL streptomycin (Shenzheng Huayao Nanfang Pharmaceutical Co., Ltd; batch number: N09081), 100 U/mL penicillin (North China Pharmaceutical Co., Ltd; batch number: E0909604), and are seeded in 96 well plates (Costar, US) at 200 μL/well, placed in an incubator (Binder, Germany) at 37° C. with 5% CO2 to culture the cell. In 24 h when cells grow into a single layer, virus solution of 100 TCID50 (TCID50=10^−2.5) is added and incubated for 1.5 h. Maintenance medium with the drug is added at 200 μL/well after 3×PBS washes.
After digestion of MDBK cells with trypsin, cells with a concentration of 1×10^5/mL are seeded into 96 well plates at 200 μL/well, placed in an incubator at 37° C. with 5% CO2 for 24 h. After growing into a single layer, cells are attacked using 100 TCID50 (TCID50=10^−2.5) virus and incubated for 1.5 h. The virus-containing maintenance medium is discarded, and cells are washed with PBS, followed by addition of drug-containing maintenance medium with different concentrations, and incubation in 5% CO2 at 37° C. Normal cell control, virus control, drug treatment and ribavirin treatment groups are set. The cytopathy developing status is recorded everyday by observing under an inverted microscope.

MDBK (NBL-1) cells = test: MTT assay for cytotoxicity; type: cell-based, bovine
Method: The drug-containing medium is added and further incubated for 48 h. MTT is added (5 mg/mL) at 20 μL/well and cultured for 4 h, the supernatant is discarded and 150 μL DMSO is added, then the plate is shaken for 10 minutes and the absorbance is determined using a microplate reader using the wavelength 570 nm and a reference wavelength 450 nm. The cell survival rate is calculated after treatment of compounds: cell survival rate (%)=drug group A value/cell control group A value×100%, and the results are shown in FIG. 10. Cell proliferation inhibition rate (%)=100%−survival rate (%), half maximal (50%) toxic concentration (TC50) is calculated according to Reed-Muench method.

[3] = system: mice with carbon tetrachloride induced liver damage; test: Carbon tetrachloride induced chemical liver damage model in mice; type: in vivo, Kunming mice; conditions: for protective effect against liver damage induced by carbon tetrachloride (summary): mice, intragastric, 3 days
Method: Kunming mice of clean grade (male, weight 20±2 g), after adaptively fed for 3 days, are randomly divided into normal group, model group, bifendate positive control group (200 mg/kg), AD group (0.88 mmol/kg), low dosage group (0.66 mmol/kg) and high dosage group (0.88 mmol/kg) of compound A, B, C and D, with 8 mice in each group. Positive group and each test group are intragastrically given with respective suspension prepared with 0.5% CMC-Na, and normal group and model group are given with 0.5% CMC-Na. The drugs are given for 3 days, and 1 h after the last administration, all mice except those in the normal group are intraperitoneally injected with a single dose of 0.3% carbon tetrachloride in peanut oil (0.1 mL/10 g). After 16 h, the eyeball of the mice in each group is enucleated to collect blood, which is centrifuged at 3000 rpm for 15 min to separate serum. ALT and AST activities are tested respectively (Nanjing Jiancheng Bioengineering Institute). The left lobe of liver is taken to prepare 10% homogenate using physiological saline, MDA (Nanjing Jiancheng Bioengineering Institute) and PGE2 contents are determined. Experimental data are expressed as average±standard deviation (X±s), analyzed with SPSS 11.5 statistic software, with P<0.05 meaning there is a significant difference. Other agents, drugs and experimental methods are the same as in EXAMPLE 1. In experimental investigation of both models, the following grouping method is used: Kunming mice of clean grade (male, weight 20±2 g) are randomly divided into normal group, model group, bifendate group (200 mg/kg), AD group (0.88 mmol/kg), low dosage group (0.66 mmol/kg) and high dosage group (0.88 mmol/kg) of compound E, with 8 mice in each group. Other agents, drugs and experimental methods are the same as in EXAMPLE 1 and in EXAMPLE 4, respectively.

[4] = high dosage 0.88 mmol/kg vs AD 0.88 mmol/kg, P<0.05
[5] = high dosage 0.88 mmol/kg, P<0.01
[6] = low dosage 0.66 mmol/kg vs AD 0.88 mmol/kg, P<0.05
[7] = low dosage 0.66 mmol/kg, P<0.05 (D), P<0.01 (E)
[8] = low dosage 0.66 mmol/kg, P<0.01
[9] = dosage groups not distinguished (0.66 and 0.88 mmol/kg), P<0.01
[10] = dosage groups not distinguished, P<0.01
[11] = high dosage 0.88 mmol/kg, P<0.05

SMILES: C=C1CCC2C(C)(COC(=O)CCC(=O)O)C(OC(=O)CCC(=O)O)CCC2(C)C1C=CC1=CC(=Cc2ccc(Cl)cc2)OC1=O (stereo not shown) [Compound E]
- ALT activity in serum compared with AD group [1, 4]: notably lower than AD group
- AST activity in serum compared with AD group [1, 4]: notably lower than AD group
- ALT activity in serum vs model group [1, 5]: notably decrease
- AST activity in serum vs model group [1, 5]: notably decrease
- ALT activity in serum compared with AD group [1, 6]: notably lower than AD group
- AST activity in serum compared with AD group [1, 6]: notably lower than AD group
- ALT activity in serum vs model group [1, 7]: notably decrease
- AST activity in serum vs model group [1, 7]: notably decrease
- protective effect against liver damage induced by ConA (summary) [1]: significant protective effect
- antiviral effect compared with AD [2]: better antiviral effect than AD
- pharmaceutical effect against cytopathy caused by virus compared with ribavirin [2]: better than ribavirin
- TI value (therapy index, TC50/IC50) [2]: >250
- cytotoxicity to MDBK cells (MDBK (NBL-1) cells; 0-7.5 μmol/L, 48 h): do not show obvious cytotoxcity
- cytotoxicity to MDBK cells (MDBK (NBL-1) cells; 30 μmol/L): shows no cytotoxcity
- magnitude of decrease in ALT activity compared to AD group [3, 4]: notably lower
- magnitude of decrease in AST activity compared to AD group [3, 4]: notably lower
- ALT activity in serum vs model group [3, 5]: notably decrease
- AST activity in serum vs model group [3, 5]: notably decrease
- ALT activity in serum vs model group [3, 8]: notably decrease
- AST activity in serum vs model group [3, 8]: notably decrease
- protective effect against liver damage induced by carbon tetrachloride (summary) [3]: significant protective effect

SMILES: C=C1CCC2C(C)(COC(=O)c3cccnc3)C(OC(=O)c3cccnc3)CCC2(C)C1C=CC1=CC(=Cc2ccc(Cl)cc2)OC1=O (stereo not shown) [Compound D, 15-p-chlorobenzylidene-3,19-nicotinate-14-deoxy-11,12-dehydroandrographolide]
- PGE2 content in liver homogenate relative to normal group ([1]; high dosage 0.88 mmol/kg): close to that of normal group
- enzyme (ALT, AST) lowering effect compared to AD group [1, 4]: obviously increased abilities to lower the enzymes
- ALT activity in serum vs model group [1, 5]: notably decreased
- AST activity in serum vs model group [1, 5]: notably decreased
- MDA content in liver homogenate vs model group [1, 5]: significantly reduce
- PGE2 content in liver homogenate vs model group [1, 5]: significantly reduce
- ability against liver lipid peroxidation compared with AD group ([1]; high dosage 0.88 mmol/kg, P<0.01 (B, C), P<0.05 (D)): obviously increased abilities
- PGE2 content in liver homogenate vs model group ([1]; low dosage 0.66 mmol/kg, P<0.05 (A), P<0.01 (D)): significantly reduce
- ALT activity in serum vs model group [1, 7]: notably decreased
- AST activity in serum vs model group [1, 7]: notably decreased
- MDA content in liver homogenate vs model group ([1]; low dosage (printed 0.66 mol/kg), P<0.01): significantly reduce
- protective effect against liver damage induced by ConA (summary) [1]: significant protective effect
- antiviral effect compared with AD [2]: better antiviral effect than AD
- pharmaceutical effect against cytopathy caused by virus compared with ribavirin [2]: better than ribavirin
- TI value (therapy index, TC50/IC50) [2]: >127.6
- cytotoxicity to MDBK cells (MDBK (NBL-1) cells; 0-7.5 μmol/L, 48 h): do not show obvious cytotoxcity
- ALT activity in serum vs model group [3, 9]: notably suppress the increase
- AST activity in serum vs model group [3, 9]: notably suppress the increase
- MDA level in liver homogenate vs model group [3, 10]: effectively reduce
- PGE2 level in liver homogenate vs model group [3, 10]: effectively reduce
- magnitude of decrease in ALT activity compared to AD group [3, 4]: significantly better
- magnitude of decrease in AST activity compared to AD group [3, 4]: significantly better
- PGE2 content compared to AD group [3, 11]: notably lower
- ability to reduce lipid peroxide level in liver homogenate compared to AD group [3, 11]: stronger ability to reduce the lipid peroxide level
- magnitude of decrease in ALT activity compared to AD group [3, 6]: significantly better
- magnitude of decrease in AST activity compared to AD group [3, 6]: significantly better
- PGE2 content compared to AD group ([3]; low dosage 0.66 mmol/kg, P<0.05): notably lower
- protective effect against liver damage induced by carbon tetrachloride (summary) [3]: protective effect
